System: 843126-344-R-J1-PDC complex spheroid viability
Experiment: Anticancer human tumor 843126-344-R-J1-PDC patient-derived melanoma cell line growth inhibition [POLQ]
Details: for IC50: curve of first compound; for viability, T/C: stronger effect = lower value
How it was run: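 Patient-derived tumour cells were co-cultured with HUVEC and mesenchymal stem cells as multicellular spheroids at 37 °C. They were treated with POLQ inhibitors (novobiocin, ART-558, RP6685) alone or combined with other agents. Top concentrations were at or near clinical Cmax (otherwise 10 microM; SN-38 at 1 microM), decreasing in half-log steps.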

[1] = second compound 0.0316 µM, first compound 0.0316 µM
[2] = second compound 0.0316 µM, first compound 0.1 µM
[3] = second compound 0.0316 µM, first compound 0.316 µM
[4] = second compound 0.0316 µM, first compound 1 µM
[5] = second compound 0.0316 µM, first compound 3.16 µM
[6] = second compound 0.0316 µM, first compound 10 µM
[7] = second compound 0.1 µM, first compound 0.0316 µM
[8] = second compound 0.1 µM, first compound 0.1 µM
[9] = second compound 0.1 µM, first compound 0.316 µM
[10] = second compound 0.1 µM, first compound 1 µM
[11] = second compound 0.1 µM, first compound 3.16 µM
[12] = second compound 0.1 µM, first compound 10 µM
[13] = second compound 0.316 µM, first compound 0.0316 µM
[14] = second compound 0.316 µM, first compound 0.1 µM
[15] = second compound 0.316 µM, first compound 0.316 µM
[16] = second compound 0.316 µM, first compound 1 µM
[17] = second compound 0.316 µM, first compound 3.16 µM
[18] = second compound 0.316 µM, first compound 10 µM
[19] = second compound 1 µM, first compound 0.0316 µM
[20] = second compound 1 µM, first compound 0.1 µM
[21] = second compound 1 µM, first compound 0.316 µM
[22] = second compound 1 µM, first compound 1 µM
[23] = second compound 1 µM, first compound 3.16 µM
[24] = second compound 1 µM, first compound 10 µM
[25] = second compound 3.16 µM, first compound 0.0316 µM
[26] = second compound 3.16 µM, first compound 0.1 µM
[27] = second compound 3.16 µM, first compound 0.316 µM
[28] = second compound 3.16 µM, first compound 1 µM
[29] = second compound 3.16 µM, first compound 3.16 µM
[30] = second compound 3.16 µM, first compound 10 µM
[31] = second compound 10 µM, first compound 0.0316 µM
[32] = second compound 10 µM, first compound 0.1 µM
[33] = second compound 10 µM, first compound 0.316 µM
[34] = second compound 10 µM, first compound 1 µM
[35] = second compound 10 µM, first compound 3.16 µM
[36] = second compound 10 µM, first compound 10 µM
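Throughout, for viability, T/C: spheroids exposed to drugs for seven days before readout.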

CCc1cc2c(N3CCc4c(cc(Cn5ccnc5)cc4-c4cn(C)nc4C(F)(F)F)C3=O)ccnc2c(OC)n1 + Nc1ccc(C#CCN(C(=O)Cc2ncc(C(F)(F)F)cc2C(F)(F)F)c2ccc(F)cc2)nn1
IC50 (second compound 0.0316 µM): > 10 µM | IC50 (second compound 0.1 µM): > 10 µM | IC50 (second compound 0.316 µM): > 10 µM | IC50 (second compound 1 µM): > 10 µM | IC50 (second compound 3.16 µM): > 10 µM | IC50 (second compound 10 µM): > 10 µM | viability, T/C [1]: 91.6% | viability, T/C [2]: 90.2% | viability, T/C [3]: 82% | viability, T/C [4]: 86.8% | viability, T/C [5]: 64.7% | viability, T/C [6]: 61.6% | viability, T/C [7]: 107% | viability, T/C [8]: 100% | viability, T/C [9]: 81.5% | viability, T/C [10]: 77.1% | viability, T/C [11]: 88% | viability, T/C [12]: 61.6% | viability, T/C [13]: 101% | viability, T/C [14]: 100% | viability, T/C [15]: 96.6% | viability, T/C [16]: 82.3% | viability, T/C [17]: 72.9% | viability, T/C [18]: 61.5% | viability, T/C [19]: 96.6% | viability, T/C [20]: 99.3% | viability, T/C [21]: 94.4% | viability, T/C [22]: 72.2% | viability, T/C [23]: 88.4% | viability, T/C [24]: 58.2% | viability, T/C [25]: 94.5% | viability, T/C [26]: 90.9% | viability, T/C [27]: 96.7% | viability, T/C [28]: 80.1% | viability, T/C [29]: 82.7% | viability, T/C [30]: 56.8% | viability, T/C [31]: 83% | viability, T/C [32]: 76.6% | viability, T/C [33]: 75.8% | viability, T/C [34]: 73.5% | viability, T/C [35]: 80.2% | viability, T/C [36]: 55.9%

CC1COCCN1c1cc(C2(O)CC3CCC(C2)O3)c2cnn(-c3ccn[nH]3)c2n1 (stereo unspecified) + Nc1ccc(C#CCN(C(=O)Cc2ncc(C(F)(F)F)cc2C(F)(F)F)c2ccc(F)cc2)nn1
IC50 (second compound 0.0316 µM): 0.39 µM | IC50 (second compound 0.1 µM): 0.435 µM | IC50 (second compound 0.316 µM): 0.369 µM | IC50 (second compound 1 µM): 0.312 µM | IC50 (second compound 3.16 µM): 0.344 µM | IC50 (second compound 10 µM): 0.21 µM | viability, T/C [1]: 82.7% | viability, T/C [2]: 65.4% | viability, T/C [3]: 54.9% | viability, T/C [4]: 37.2% | viability, T/C [5]: 29.7% | viability, T/C [6]: 20.2% | viability, T/C [7]: 74.5% | viability, T/C [8]: 79.2% | viability, T/C [9]: 51.6% | viability, T/C [10]: 37.6% | viability, T/C [11]: 31.9% | viability, T/C [12]: 22% | viability, T/C [13]: 73.2% | viability, T/C [14]: 69.9% | viability, T/C [15]: 49.1% | viability, T/C [16]: 36.5% | viability, T/C [17]: 28% | viability, T/C [18]: 17.9% | viability, T/C [19]: 85.9% | viability, T/C [20]: 64.7% | viability, T/C [21]: 48.5% | viability, T/C [22]: 38.8% | viability, T/C [23]: 28.7% | viability, T/C [24]: 18.7% | viability, T/C [25]: 79.1% | viability, T/C [26]: 70.1% | viability, T/C [27]: 46.6% | viability, T/C [28]: 38.6% | viability, T/C [29]: 29.1% | viability, T/C [30]: 19.6% | viability, T/C [31]: 71.5% | viability, T/C [32]: 56.7% | viability, T/C [33]: 47.8% | viability, T/C [34]: 33% | viability, T/C [35]: 26.7% | viability, T/C [36]: 20.1%

CCc1cc2c(N3CCc4c(cc(Cn5ccnc5)cc4-c4cn(C)nc4C(F)(F)F)C3=O)cc(C)nc2c(OC)n1 + Nc1ccc(C#CCN(C(=O)Cc2ncc(C(F)(F)F)cc2C(F)(F)F)c2ccc(F)cc2)nn1
IC50 (second compound 0.0316 µM): > 10 µM | IC50 (second compound 0.1 µM): > 10 µM | IC50 (second compound 0.316 µM): > 10 µM | IC50 (second compound 1 µM): > 10 µM | IC50 (second compound 3.16 µM): > 10 µM | IC50 (second compound 10 µM): > 10 µM | viability, T/C [1]: 96.9% | viability, T/C [2]: 95.3% | viability, T/C [3]: 82% | viability, T/C [4]: 80.7% | viability, T/C [5]: 73.2% | viability, T/C [6]: 58.8% | viability, T/C [7]: 97.5% | viability, T/C [8]: 99.5% | viability, T/C [9]: 89.1% | viability, T/C [10]: 82% | viability, T/C [11]: 79.7% | viability, T/C [12]: 58.2% | viability, T/C [13]: 87.5% | viability, T/C [14]: 97.4% | viability, T/C [15]: 77.6% | viability, T/C [16]: 84.6% | viability, T/C [17]: 76.8% | viability, T/C [18]: 66.7% | viability, T/C [19]: 104% | viability, T/C [20]: 94% | viability, T/C [21]: 80.3% | viability, T/C [22]: 81.7% | viability, T/C [23]: 68.6% | viability, T/C [24]: 58.8% | viability, T/C [25]: 90.6% | viability, T/C [26]: 85.9% | viability, T/C [27]: 93.4% | viability, T/C [28]: 74.8% | viability, T/C [29]: 66.2% | viability, T/C [30]: 64% | viability, T/C [31]: 83.3% | viability, T/C [32]: 89.6% | viability, T/C [33]: 75.8% | viability, T/C [34]: 81.5% | viability, T/C [35]: 73.3% | viability, T/C [36]: 59.4%
